According to patent publication US9957254B2, “Cyclohexen-1-yl-pyridin-2-yl-1h-pyrazole-4-carboxylic acid derivatives and the use thereof as soluble guanylate cyclase activators” (Novartis AG, priority 2014, dated 2018):

target: T1, soluble guanylate cyclase (Homo sapiens, UniProt Q02153); assay: CHO cellular assay (cGMP production, Cisbio cGMP HTRF); type: cell-based; settings: CHO K1 cells overexpressing human GUCYA3/GUCYB3 (clone 8E10), 1 mM IBMX, 20 uM ODQ, 1 h room temperature, listed 0.5 nM means actual EC50 ≤0.5 nM (quantification limit)
T1 construct: expressed in transfected cells
T1 sequence (Q02108 whole entry partner): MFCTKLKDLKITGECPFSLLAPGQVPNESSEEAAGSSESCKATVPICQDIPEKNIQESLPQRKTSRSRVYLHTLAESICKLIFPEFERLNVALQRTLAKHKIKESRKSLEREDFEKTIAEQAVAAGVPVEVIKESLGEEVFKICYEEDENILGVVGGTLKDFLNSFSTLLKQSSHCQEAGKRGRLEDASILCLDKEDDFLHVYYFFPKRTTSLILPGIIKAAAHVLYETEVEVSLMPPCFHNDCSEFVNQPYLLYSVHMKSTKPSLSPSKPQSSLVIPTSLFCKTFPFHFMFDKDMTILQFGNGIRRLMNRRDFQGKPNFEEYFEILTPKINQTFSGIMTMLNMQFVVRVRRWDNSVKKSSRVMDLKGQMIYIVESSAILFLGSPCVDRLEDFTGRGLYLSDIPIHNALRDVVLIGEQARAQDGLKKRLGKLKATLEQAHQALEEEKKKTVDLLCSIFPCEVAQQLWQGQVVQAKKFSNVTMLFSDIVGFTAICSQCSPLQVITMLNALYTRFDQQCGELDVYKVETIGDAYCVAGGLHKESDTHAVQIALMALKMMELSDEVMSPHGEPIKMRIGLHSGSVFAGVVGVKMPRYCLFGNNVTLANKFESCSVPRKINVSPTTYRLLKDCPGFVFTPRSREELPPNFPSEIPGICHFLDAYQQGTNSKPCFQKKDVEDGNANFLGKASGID
T1 sequence (Q02153 whole entry): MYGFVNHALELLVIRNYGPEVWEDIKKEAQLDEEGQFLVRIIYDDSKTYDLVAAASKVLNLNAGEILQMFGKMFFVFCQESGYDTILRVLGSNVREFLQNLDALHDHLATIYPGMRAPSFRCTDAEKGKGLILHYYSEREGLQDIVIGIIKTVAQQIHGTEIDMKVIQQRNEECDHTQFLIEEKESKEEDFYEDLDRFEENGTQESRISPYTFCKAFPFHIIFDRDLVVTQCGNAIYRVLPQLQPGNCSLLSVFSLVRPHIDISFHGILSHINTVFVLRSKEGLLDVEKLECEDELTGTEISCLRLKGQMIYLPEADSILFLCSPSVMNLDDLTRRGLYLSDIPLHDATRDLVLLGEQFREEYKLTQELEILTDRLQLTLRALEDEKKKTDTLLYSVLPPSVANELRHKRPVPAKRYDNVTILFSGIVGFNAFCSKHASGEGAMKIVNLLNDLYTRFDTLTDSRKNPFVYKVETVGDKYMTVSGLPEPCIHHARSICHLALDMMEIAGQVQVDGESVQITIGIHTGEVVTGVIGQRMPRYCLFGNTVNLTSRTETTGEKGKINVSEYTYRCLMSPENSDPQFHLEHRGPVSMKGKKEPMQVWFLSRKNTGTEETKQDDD
Description: Chinese hamster ovary (CHO) cells overexpressing soluble guanylate cyclase were generated to test the effect of sGC activators in a cellular context. Human cDNAs for GUCYA3 (RefSeq: NM_000856.3) and GUCYB3 (RefSeq: NM_000857.1) were amplified by PCR from a HUVEC (Human Umbilical Vein Endothelial Cells) cDNA library and cloned into mammalian expression vectors. CHO K1 cells (ATCC CCL-61) were transfected using Lipofectamine 2000 following manufacturer's instructions and stably expressing clones were identified by antibiotic selection. CHO GUCY clone 8E10 was used for subsequent experiments.
Cells were seeded at a density of 3000 cells/well in white 384-well proxyplates (Perkin Elmer) and incubated overnight, then the medium was removed and cells were washed with assay buffer (HBSS, 0.1% BSA, 1 mM IBMX, 20 uM ODQ). sGC activators were serially diluted in DMSO, then diluted in assay buffer prior to adding to cells (10 ul/well, final DMSO concentration 0.5%). Cells were incubated with compounds for 1 h room temperature, then assayed for cGMP production using Cisbio cGMP HTRF kit (62GM2PEC) according to manufacturer's instructions.
The EC50s are calculated based on the amount of cGMP interpolated from the standard curve, using a 4-parameter sigmoidal dose-response.
Compounds of invention are active on sGC activation. Data on Table 1 collected using the assay of Biological Example 1. The minimum EC50 quantification limit of the assay is 0.5 nM, therefore any compound listed as having an EC50 value of 0.5 nM has a actual EC50 of ≤0.5 nM.

Row | Structure (SMILES) | EC50 [nM]
1 | CCc1cc(C2CCN(C(=O)C3CC3)CC2)ccc1OCC1=C(c2cccc(-n3ncc(C(=O)O)c3C(F)(F)F)n2)CCCC1 [Example 8-1, 1-(6-(2-((4-(1-(cyclopropanecarbonyl)piperidin-4-yl)-2-ethylphenoxy)methyl)cyclohex-1-en-1-yl)pyridin-2-yl)-5-(trifluoromethyl)-1H-pyrazole-4-carboxylic acid] | 5.5
2 | O=C(O)c1cnn(-c2cccc(C3=C(COc4ccc5c(c4)CCN(Cc4ccccn4)C5)CCCC3)n2)c1C(F)(F)F [Example 8-2, 1-(6-(2-(((2-(pyridin-2-ylmethyl)-1,2,3,4-tetrahydroisoquinolin-6-yl)oxy)methyl)cyclohex-1-en-1-yl)pyridin-2-yl)-5-(trifluoromethyl)-1H-pyrazole-4-carboxylic acid] | 34
3 | CCc1c(C(=O)O)cnn1-c1cccc(C2=C(COc3ccc(C4CCN(C(=O)C5CC5)CC4)cc3C)CCCC2)n1 [Example 9, 1-(6-(2-((4-(1-(Cyclopropanecarbonyl)piperidin-4-yl)-2-methylphenoxy)methyl)cyclohex-1-en-1-yl)pyridin-2-yl)-5-ethyl-1H-pyrazole-4-carboxylic acid] | ≤ 0.5
4 | Cc1cc(C2CCN(C(=O)C3CC3)CC2)ccc1OCC1=C(c2cccc(-n3ncc(C(=O)O)c3C(F)(F)F)c2)CCCC1 [Example 10, 1-(6′-((4-(1-(Cyclopropanecarbonyl)piperidin-4-yl)-2-methylphenoxy)methyl)-2′,3′,4′,5′-tetrahydro-[1,1-biphenyl]-3-yl)-5-(trifluoromethyl)-1H-pyrazole-4-carboxylic acid] | 1
5 | Cc1cc(C2CCN(C(=O)CN)CC2)ccc1OCC1=C(c2cccc(-n3ncc(C(=O)O)c3C(F)(F)F)n2)CCCC1 [Example 11, 1-(6-(2-((4-(1-(2-Aminoacetyl)piperidin-4-yl)-2-methylphenoxy)methyl)cyclohex-1-en-1-yl)pyridin-2-yl)-5-(trifluoromethyl)-1H-pyrazole-4-carboxylic acid] | 110
6 | CCc1cc(OCC2=C(c3cccc(-n4ncc(C(=O)O)c4C(F)(F)F)n3)CCCC2(C)C)ccc1C1CCN(C(=O)C2CC2)CC1 [Example 14, 1-(6-(2-((4-(1-(Cyclopropanecarbonyl)piperidin-4-yl)-3-ethylphenoxy)methyl)-3,3-dimethylcyclohex-1-en-1-yl)pyridin-2-yl)-5-(trifluoromethyl)-1H-pyrazole-4-carboxylic acid] | 1
7 | Cc1cc(C2CCN(C(=O)C3CC3)CC2)ccc1OCC1=C(c2cccc(-n3ncc(C(=O)O)c3C(F)(F)F)n2)CCC1 [Example 21, 1-(6-(2-((4-(1-(Cyclopropanecarbonyl)piperidin-4-yl)-2-methylphenoxy)methyl)cyclopent-1-en-1-yl)pyridin-2-yl)-5-(trifluoromethyl)-1H-pyrazole-4-carboxylic acid] | 2.4
8 | Cc1cc(C2CCN(C(=O)N(C)C)CC2)ccc1OCC1=C(c2cccc(-n3ncc(C(=O)O)c3C(F)(F)F)n2)CCC1 [Example 23, 1-(6-(2-((4-(1-(Dimethylcarbamoyl)piperidin-4-yl)-2-methylphenoxy)methyl)cyclopent-1-en-1-yl)pyridin-2-yl)-5-(trifluoromethyl)-1H-pyrazole-4-carboxylic acid] | 3.5
9 | Cc1cc(C2CCN(C(=O)CO)CC2)ccc1OCC1=C(c2cccc(-n3ncc(C(=O)O)c3C(F)(F)F)n2)CCC1 [Example 24-1, 1-(6-(2-((4-(1-(2-hydroxyacetyl)piperidin-4-yl)-2-methylphenoxy)methyl)cyclopent-1-en-1-yl)pyridin-2-yl)-5-(trifluoromethyl)-1H-pyrazole-4-carboxylic acid] | 19
10 | CCC(=O)N1CCC(c2ccc(OCC3=C(c4cccc(-n5ncc(C(=O)O)c5C(F)(F)F)n4)CCC3)c(C)c2)CC1 [Example 24-2, 1-(6-(2-((2-Methyl-4-(1-propionylpiperidin-4-yl)phenoxy)methyl)cyclopent-1-en-1-yl)pyridin-2-yl)-5-(trifluoromethyl)-1H-pyrazole-4-carboxylic acid] | 2.4
11 | COC(=O)N1CCC(c2ccc(OCC3=C(c4cccc(-n5ncc(C(=O)O)c5C(F)(F)F)n4)CCC3)c(C)c2)CC1 [Example 24-3, 1-(6-(2-((4-(1-(Methoxycarbonyl)piperidin-4-yl)-2-methylphenoxy)methyl)cyclopent-1-en-1-yl)pyridin-2-yl)-5-(trifluoromethyl)-1H-pyrazole-4-carboxylic acid] | 22
12 | Cc1cc(C2CCN(S(C)(=O)=O)CC2)ccc1OCC1=C(c2cccc(-n3ncc(C(=O)O)c3C(F)(F)F)n2)CCC1 [Example 24-4, 1-(6-(2-((2-Methyl-4-(1-(methylsulfonyl)piperidin-4-yl)phenoxy)methyl)cyclopent-1-en-1-yl)pyridin-2-yl)-5-(trifluoromethyl)-1H-pyrazole-4-carboxylic acid] | 2.4
13 | Cc1cc(C2CCN(CC(F)(F)F)CC2)ccc1OCC1=C(c2cccc(-n3ncc(C(=O)O)c3C(F)(F)F)n2)CCC1 [Example 25, 1-(6-(2-((2-Methyl-4-(1-(2,2,2-trifluoroethyl)piperidin-4-yl)phenoxy)methyl)cyclopent-1-en-1-yl)pyridin-2-yl)-5-(trifluoromethyl)-1H-pyrazole-4-carboxylic acid] | 5
14 | CCc1cc(NCC2=C(c3cccc(-n4ncc(C(=O)O)c4C(F)(F)F)n3)CCCC2)ccc1C1CCN(C(=O)C2CC2)CC1 [Example 26, 1-(6-(2-(((4-(1-(Cyclopropanecarbonyl)piperidin-4-yl)-3-ethylphenyl)amino)methyl)cyclohex-1-en-1-yl)pyridin-2-yl)-5-(trifluoromethyl)-1H-pyrazole-4-carboxylic acid] | ≤ 0.5
15 | Cc1cc(C2CCN(C(=O)C3CC3)CC2)ccc1NCC1=C(c2cccc(-n3ncc(C(=O)O)c3C(F)(F)F)n2)CCCC1 [Example 27-1, 1-(6-(2-(((4-(1-(Cyclopropanecarbonyl)piperidin-4-yl)-2-methylphenyl)amino)methyl)cyclohex-1-en-1-yl)pyridin-2-yl)-5-(trifluoromethyl)-1H-pyrazole-4-carboxylic acid] | 2.4
16 | O=C(O)c1cnn(-c2cccc(C3=C(CNc4ccc(C5CCN(C(=O)C6CC6)CC5)cc4)CCCC3)n2)c1C(F)(F)F [Example 27-2, 1-(6-(2-(((4-(1-(Cyclopropanecarbonyl)piperidin-4-yl)phenyl)amino)methyl)cyclohex-1-en-1-yl)pyridin-2-yl)-5-(trifluoromethyl)-1H-pyrazole-4-carboxylic acid] | 5
